From ChEMBL document CHEMBL3425412, “Additional sesterterpenes and a nortriterpene saponin from the sponge Clathria gombawuiensis” (2015)
In brackets after ≈: the same amount, converted by molar mass.

Legend:
Format in all cases: functional
[1] = tested on: A549; assay: Cytotoxicity against human A549 cells; details: read-out: LC50 (the source's name)
[2] = tested on: K562; assay: Cytotoxicity against human K562 cells; details: read-out: LC50 (the source's name)
[3] = tested on: Bacillus subtilis; assay: Antimicrobial activity against Bacillus subtilis ATCC 6633 after 24 hrs by twofold dilution method; details: ATCC 6633, 24 h
[4] = tested on: Proteus hauseri; assay: Antimicrobial activity against Proteus hauseri NBRC 3851 after 24 hrs by twofold dilution method; details: NBRC 3851, 24 h
[5] = tested on: Staphylococcus aureus; assay: Antimicrobial activity against Staphylococcus aureus ATCC 6538p after 24 hrs by twofold dilution method
[6] = tested on: Salmonella enterica; assay: Antimicrobial activity against Salmonella enterica ATCC 14028 after 24 hrs by twofold dilution method; details: ATCC 14028, 24 h
[7] = tested on: Kocuria rhizophila; assay: Antimicrobial activity against Kocuria rhizophila NBRC 12708 after 24 hrs by twofold dilution method; details: NBRC 12708, 24 h

Compound	CC50 [1]	CC50 [2]	MIC [3]	MIC [4]	MIC [5]	MIC [6]	MIC [7]
COc1c(C)ccc2c1[C@@]1(C)C[C@H](O)[C@H]3C(C)(C)CCC[C@]3(C)[C@H]1C(=O)C=C2C	> 100 µM	> 100 µM					
CC(=O)[C@H]1CC[C@@]2(C)C3=C(CC[C@]12C)[C@@]1(C)CCC(O[C@@H]2O[C@H](C(=O)O)[C@@H](O)[C@H](OS(=O)(=O)[O-])[C@H]2O)C(C)(C)[C@@H]1CC3.[Na+] (some centres undefined)	2.1 µM	1.8 µM	1.6 µg/mL	3.1 µg/mL	> 100 µg/mL	> 100 µg/mL	> 100 µg/mL
COc1cccc2c1C(=O)c1c(O)c3c(c(O)c1C2=O)C[C@@](O)(C(=O)CO)C[C@@H]3O[C@H]1C[C@H](N)[C@H](O)[C@H](C)O1 [DOXORUBICIN]	1.1 µM	1.5 µM					
CC1(C)S[C@@H]2[C@H](NC(=O)[C@H](N)c3ccccc3)C(=O)N2[C@H]1C(=O)O [AMPICILLIN]			0.4 µg/mL (≈ 1.14 µM)	0.4 µg/mL (≈ 1.14 µM)	0.4 µg/mL (≈ 1.14 µM)	0.8 µg/mL (≈ 2.29 µM)	0.4 µg/mL (≈ 1.14 µM)
CC1=CC(=O)[C@@H]2[C@@]3(C)CCCC(C)(C)[C@@H]3[C@@H](O)C[C@]2(C)c2c1ccc(C)c2O	4.7 µM	5.4 µM		> 100 µg/mL	> 100 µg/mL		
C=C1/C=C\[C@@H]2[C@@]3(C)CCCC(C)(C)[C@@H]3[C@H](O)C[C@@]2(C)O[C@@H]2C=C(C)C(=O)C[C@H]12	3.9 µM	4.5 µM		> 100 µg/mL	> 100 µg/mL		
